Experimental data taken from patent publication US20150315241A1, “Antibiotic Peptides” (priority 2007, published 2015).
≈ marks a conversion by molar mass, not a printed value. Where a SMILES comes first, the peptide text is derived from it. [ ]: non-standard residue; d: D form. Cha = N[C@@H](CC1CCCCC1)C(=O)O; NMeL = CN[C@@H](CC(C)C)C(=O)O; Orn = NCCC[C@H](N)C(=O)O

Experiments:
E. coli 45849 = experiment: Growth inhibition assay (MIC); assay type: cell-based, Escherichia coli
Experimental: (§1) The minimal inhibition concentrations (MIC) of the apidaecin-derived peptides and peptide-derivatives were determined by a growth inhibition assay using a serial peptide dilution in sterilized round-bottom 96-well plates (polystyrene, U-bottom, Greiner Bio-One GmbH) with a final volume of 100 μL per well. The bacteria, e.g., E. coli BL21 A1, were grown in nutrient broth (NB, Carl Roth GmbH+Co. KG, Karlsruhe, Germany) at 37° C. over night. To each well of the 96-well plate, 50 μL of the overnight culture adjusted to 5×10^6 CFU/mL in 1% TSB were added. Lyophilized peptides and peptidomimetics were dissolved in 1% TSB (tryptic soy broth) or water to give a final concentration of 250 μg/mL. Fifty μL of the peptide or peptidomimetics solution were added to the first well of a row on the plate and mixed. Fifty μL of the first well containing the peptide solution were transferred to the second well, mixed and again 50 μL transferred to the next well and so on. Thereby, a two-fold dilution series was obtained starting at 250 μg/mL in the first well down to 120 ng/mL in the 12th well of a row giving a final peptide or peptidomimetics concentration from 125 μg/mL (well 1) to 60 ng/mL (well 12). Plates were incubated at 37° C. for 20 hrs. The absorbance was measured at 595 nm using a TECAN micro plate spectrophotometer (Tecan, Germany). All peptides and peptidomimetics were measured in triplicates. Sterilized water was used as a negative control.
(§2) The following multidrug resistant bacteria strains were tested: • Eschericha coli 45849 and D31, • Klebsiella pneumoniae 123132 and K6, • Salmonella typhi S5 and Salmonella enterica subsp. enterica serovar Typhimurium (ATCC 700408), • Rhizobium radiobacter (ATCC 15955 deposited as Agrobacterium tumefaciens).

S. typhi S5 = assay type: cell-based, Salmonella typhi; conditions: S5, 20 h
Experimental: as §1, §2

E. coli D31 = assay type: cell-based, Escherichia coli; conditions: D31, 20 h
Experimental: as §1, §2

K. Pneumonia 123132 = experiment: Growth inhibition assay (MIC); assay type: cell-based, Klebsiella pneumoniae
Experimental: as §1, §2

[1] = test system: K. Pneumonia K6, ATCC 700603; experiment: Growth inhibition assay (MIC); assay type: cell-based, Klebsiella pneumoniae; conditions: multidrug resistant strain; 1% TSB, 37° C., 20 hrs
Experimental: as §1, §2

[2] = test system: S. enterica subsp. Enterica serovar. typhi G10215 ATCC 700408; assay type: cell-based, Salmonella enterica; conditions: ATCC 700408, 20 h
Experimental: as §1, §2

[3] = test system: R. radiobatter ATCC 15955; experiment: Growth inhibition assay (MIC); assay type: cell-based, Rhizobium radiobacter
Experimental: as §1, §2

[4] = multidrug resistant strain, 1% TSB, 37° C., 20 hrs

Compound | MIC E. coli 45849 (E. coli 45849; 45849, 20 h) | MIC S. typhi S5 (S. typhi S5) | MIC E. coli D31 (E. coli D31) | MIC K. Pneumonia 123132 (K. Pneumonia 123132; 20 h) | MIC K. Pneumonia K6, ATCC 700603 [1] | MIC S. enterica subsp. Enterica serovar. typhi G10215 ATCC 700408 [2] | MIC R. radiobatter ATCC 15955 ([3]; ATCC 15955, 20 h) | MIC E. coli 45849 (E. coli 45849; [4]) | MIC K. Pneumonia 123132 (K. Pneumonia 123132; [4]) | MIC R. radiobatter ATCC 15955 [3, 4]
CC[C@H](C)[C@H](NC(=O)[C@H](Cc1ccc(O)cc1)NC(=O)[C@@H](NC(=O)[C@@H]1CCCN1C(=O)[C@H](CCCNC(=N)N)NC(=O)[C@H](CC(N)=O)NC(=O)[C@H](CC(N)=O)NC(=O)[C@@H](N)CCCN)C(C)C)C(=O)N1CCC[C@H]1C(=O)N[C@@H](CCCN)C(=O)N1CCC[C@H]1C(=O)N[C@@H](CCCNC(=N)N)C(=O)N1CCC[C@H]1C(=O)N1CCC[C@H]1C(=O)N[C@@H](Cc1c[nH]cn1)C(=O)N1CCC[C@H]1C(=O)N[C@@H](CCCNC(=N)N)C(=O)N[C@@H](CC1CCCCC1)C(N)=O [compound 35] (H-[Orn]NNRPVYIP[Orn]PRPPHPR[Cha]-NH2) | 16 µg/mL (≈ 7.3 µM) | 16 µg/mL (≈ 7.3 µM) | 8 µg/mL (≈ 3.65 µM) | 32 µg/mL (≈ 14.6 µM) | 16 µg/mL (≈ 7.3 µM) | 4 to 8 µg/mL | 2.6 µg/mL (≈ 1.19 µM) |  |  | 
CC[C@H](C)[C@H](NC(=O)[C@H](Cc1ccc(O)cc1)NC(=O)[C@@H](NC(=O)[C@@H]1CCCN1C(=O)[C@H](CCCNC(=N)N)NC(=O)[C@H](CC(N)=O)NC(=O)[C@H](CC(N)=O)NC(=O)[C@H](CCCN)NC(C)=O)C(C)C)C(=O)N1CCC[C@H]1C(=O)N[C@@H](CCCNC(=N)N)C(=O)N1CCC[C@H]1C(=O)N[C@@H](CCCNC(=N)N)C(=O)N1CCC[C@H]1C(=O)N1CCC[C@H]1C(=O)N[C@@H](Cc1c[nH]cn1)C(=O)N1CCC[C@H]1C(=O)N[C@@H](CCCNC(=N)N)C(=O)N(C)[C@@H](CC(C)C)C(N)=O [compound 36] (Ac-[Orn]NNRPVYIPRPRPPHPR[NMeL]-NH2) |  | 16 to 32 µg/mL | 8 µg/mL (≈ 3.56 µM) |  | 64 to 128 µg/mL | 4 to 8 µg/mL |  | 4 µg/mL (≈ 1.78 µM) | 32 µg/mL (≈ 14.2 µM) | 1.3 µg/mL (≈ 0.578 µM)
CC[C@H](C)[C@H](NC(=O)[C@H](Cc1ccc(O)cc1)NC(=O)[C@@H](NC(=O)[C@@H]1CCCN1C(=O)[C@H](CCCNC(=N)N)NC(=O)[C@H](CC(N)=O)NC(=O)[C@H](CC(N)=O)NC(=O)CN)C(C)C)C(=O)N1CCC[C@H]1C(=O)N[C@@H](CCCNC(=N)N)C(=O)N1CCC[C@H]1C(=O)N[C@@H](CCCNC(=N)N)C(=O)N1CCC[C@H]1C(=O)N1CCC[C@H]1C(=O)N[C@@H](Cc1c[nH]cn1)C(=O)N1CCC[C@H]1C(=O)N[C@@H](CCCNC(=N)N)C(=O)N[C@@H](CC1CCCCC1)C(N)=O [compound 37] (H-GNNRPVYIPRPRPPHPR[Cha]-NH2) |  | 16 µg/mL (≈ 7.35 µM) | 8 µg/mL (≈ 3.68 µM) |  | 32 µg/mL (≈ 14.7 µM) | 8 µg/mL (≈ 3.68 µM) |  | 16 µg/mL (≈ 7.35 µM) | 16 µg/mL (≈ 7.35 µM) | 10.5 µg/mL (≈ 4.83 µM)
CC[C@H](C)[C@H](NC(=O)[C@H](Cc1ccc(O)cc1)NC(=O)[C@@H](NC(=O)[C@@H]1CCCN1C(=O)[C@H](CCCNC(=N)N)NC(=O)[C@H](CC(N)=O)NC(=O)[C@H](CC(N)=O)NC(=O)[C@H](CCCN)NC(C)=O)C(C)C)C(=O)N1CCC[C@H]1C(=O)N[C@@H](CCC(N)=O)C(=O)N1CCC[C@H]1C(=O)N[C@@H](CCCNC(=N)N)C(=O)N1CCC[C@H]1C(=O)N1CCC[C@H]1C(=O)N[C@@H](Cc1c[nH]cn1)C(=O)N1CCC[C@H]1C(=O)N[C@@H](CCCNC(=N)N)C(=O)N[C@@H](Cc1ccccc1)C(N)=O [compound 41] (Ac-[Orn]NNRPVYIPQPRPPHPRF-NH2) |  | 8 µg/mL (≈ 3.57 µM) | >128 µg/mL |  | 128 µg/mL (≈ 57.1 µM) | 8 µg/mL (≈ 3.57 µM) |  | 4 µg/mL (≈ 1.79 µM) | 32 µg/mL (≈ 14.3 µM) | 5.25 µg/mL (≈ 2.34 µM)
CC[C@H](C)[C@H](NC(=O)[C@H](Cc1ccc(O)cc1)NC(=O)[C@@H](NC(=O)[C@@H]1CCCN1C(=O)[C@H](CCCNC(=N)N)NC(=O)[C@H](CC(N)=O)NC(=O)[C@H](CC(N)=O)NC(=O)[C@H](CCCN)NC(C)=O)C(C)C)C(=O)N1CCC[C@H]1C(=O)N[C@@H](CCCN)C(=O)N1CCC[C@H]1C(=O)N[C@@H](CCCNC(=N)N)C(=O)N1CCC[C@H]1C(=O)N1CCC[C@H]1C(=O)N[C@@H](Cc1c[nH]cn1)C(=O)N1CCC[C@H]1C(=O)N[C@@H](CCCNC(=N)N)C(=O)N[C@@H](CC1CCCCC1)C(N)=O [compound 46] (Ac-[Orn]NNRPVYIP[Orn]PRPPHPR[Cha]-NH2) | 32 µg/mL (≈ 14.3 µM) | 32 µg/mL (≈ 14.3 µM) | 16 µg/mL (≈ 7.17 µM) | 32 to 64 µg/mL | 32 to 64 µg/mL | 8 µg/mL (≈ 3.58 µM) | 10.5 µg/mL (≈ 4.7 µM) |  |  | 
CC[C@H](C)[C@H](NC(=O)[C@H](Cc1ccc(O)cc1)NC(=O)[C@@H](NC(=O)[C@@H]1CCCN1C(=O)[C@H](CCCNC(=N)N)NC(=O)[C@H](CC(N)=O)NC(=O)[C@H](CC(N)=O)NC(=O)[C@@H](N)CCCN)C(C)C)C(=O)N1CCC[C@H]1C(=O)N[C@@H](CCCNC(=N)N)C(=O)N1CCC[C@H]1C(=O)N[C@@H](CCCNC(=N)N)C(=O)N1CCC[C@H]1C(=O)N1CCC[C@H]1C(=O)N[C@@H](Cc1c[nH]cn1)C(=O)N1CCC[C@H]1C(=O)N[C@@H](CCCNC(=N)N)C(=O)N(C)[C@@H](CC(C)C)C(N)=O [compound 47] (H-[Orn]NNRPVYIPRPRPPHPR[NMeL]-NH2) |  | 32 µg/mL (≈ 14.5 µM) | 8 µg/mL (≈ 3.63 µM) |  | 32 to 64 µg/mL | 8 µg/mL (≈ 3.63 µM) |  | 4 µg/mL (≈ 1.81 µM) | 32 µg/mL (≈ 14.5 µM) | 1.3 µg/mL (≈ 0.589 µM)
CC[C@H](C)[C@H](NC(=O)[C@H](Cc1ccc(O)cc1)NC(=O)[C@@H](NC(=O)[C@@H]1CCCN1C(=O)[C@H](CCCNC(=N)N)NC(=O)[C@H](CC(N)=O)NC(=O)[C@H](CC(N)=O)NC(=O)[C@H](CCCN)NC(C)=O)C(C)C)C(=O)N1CCC[C@H]1C(=O)N[C@@H](CCCNC(=N)N)C(=O)N1CCC[C@H]1C(=O)N[C@@H](CCCNC(=N)N)C(=O)N1CCC[C@H]1C(=O)N1CCC[C@H]1C(=O)N[C@@H](Cc1c[nH]cn1)C(=O)N1CCC[C@H]1C(=O)N[C@@H](CCCNC(=N)N)C(=O)N[C@@H](CC(C)C)C(=O)OC [compound 48] (Ac-[Orn]NNRPVYIPRPRPPHPRL-OMe) |  | 4 µg/mL (≈ 1.78 µM) | 64 µg/mL (≈ 28.4 µM) |  | 128 µg/mL (≈ 56.9 µM) | 16 µg/mL (≈ 7.11 µM) |  | 4 µg/mL (≈ 1.78 µM) | 32 µg/mL (≈ 14.2 µM) | 1.3 µg/mL (≈ 0.578 µM)
CC[C@H](C)[C@H](NC(=O)[C@H](Cc1ccc(O)cc1)NC(=O)[C@@H](NC(=O)[C@@H]1CCCN1C(=O)[C@H](CCCNC(=N)N)NC(=O)[C@H](CC(N)=O)NC(=O)[C@H](CC(N)=O)NC(=O)[C@H](CCCN)NC(C)=O)C(C)C)C(=O)N1CCC[C@H]1C(=O)N[C@@H](CCCN)C(=O)N1CCC[C@H]1C(=O)N[C@@H](CCCNC(=N)N)C(=O)N1CCC[C@H]1C(=O)N1CCC[C@H]1C(=O)N[C@@H](Cc1c[nH]cn1)C(=O)N1CCC[C@H]1C(=O)N[C@@H](CCCNC(=N)N)C(=O)N[C@@H](CC(C)C)C(=O)OC [compound 49] (Ac-[Orn]NNRPVYIP[Orn]PRPPHPRL-OMe) | 2 µg/mL (≈ 0.906 µM) | 4 µg/mL (≈ 1.81 µM) | 32 µg/mL (≈ 14.5 µM) | 64 µg/mL (≈ 29 µM) | 128 µg/mL (≈ 58 µM) | 8 µg/mL (≈ 3.62 µM) | 1.3 µg/mL (≈ 0.589 µM) |  |  | 
